# Measured values reported in patent US10005776B2, “Compounds as NIK inhibitors” (Janssen Pharmaceutica NV, priority 2014, dated 2018).
# Tests used:
# [1] = target: Recombinant Human NF-kappaB-Inducing Kinase (NIK/MAP3K14) (Homo sapiens, UniProt Q99558); assay: Inhibition of auto-phosphorylation of recombinant human NIK/MAP3K14 (AlphaScreen); assay type: biochemical; settings: 25 microM ATP, 0.2 nM GST-tagged NIK/MAP3K14, 1 h at 25° C.; averaged over all measurements on all batches; read-out: Alpha-Screen IC50
# Sequence of Recombinant Human NF-kappaB-Inducing Kinase (NIK/MAP3K14) (Q99558 whole entry): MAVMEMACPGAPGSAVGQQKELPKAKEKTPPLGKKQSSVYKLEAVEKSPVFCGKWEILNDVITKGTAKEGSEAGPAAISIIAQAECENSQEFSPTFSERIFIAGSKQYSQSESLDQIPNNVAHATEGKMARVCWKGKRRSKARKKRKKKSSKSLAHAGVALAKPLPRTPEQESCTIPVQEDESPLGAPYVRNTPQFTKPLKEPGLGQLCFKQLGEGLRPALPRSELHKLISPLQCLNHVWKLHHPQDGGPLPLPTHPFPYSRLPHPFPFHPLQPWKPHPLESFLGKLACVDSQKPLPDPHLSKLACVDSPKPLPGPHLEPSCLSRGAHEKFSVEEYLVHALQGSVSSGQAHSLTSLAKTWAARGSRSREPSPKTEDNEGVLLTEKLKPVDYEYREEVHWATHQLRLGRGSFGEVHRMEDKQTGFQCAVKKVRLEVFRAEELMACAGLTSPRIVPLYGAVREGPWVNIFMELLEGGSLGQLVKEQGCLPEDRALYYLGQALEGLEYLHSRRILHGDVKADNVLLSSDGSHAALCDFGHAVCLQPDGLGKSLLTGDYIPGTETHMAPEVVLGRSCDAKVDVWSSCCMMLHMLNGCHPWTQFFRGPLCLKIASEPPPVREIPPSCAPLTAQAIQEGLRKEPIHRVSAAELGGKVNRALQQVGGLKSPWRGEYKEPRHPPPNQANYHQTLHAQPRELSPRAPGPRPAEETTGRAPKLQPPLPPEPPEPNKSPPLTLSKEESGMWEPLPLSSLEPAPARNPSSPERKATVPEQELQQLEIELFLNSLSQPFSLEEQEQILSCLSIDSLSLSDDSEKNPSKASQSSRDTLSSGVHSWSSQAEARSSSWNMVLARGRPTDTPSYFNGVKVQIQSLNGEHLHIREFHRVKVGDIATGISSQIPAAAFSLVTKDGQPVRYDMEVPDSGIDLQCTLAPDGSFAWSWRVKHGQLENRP
# Procedure: Inhibition of Auto-Phosphorylation of Recombinant Human NF-kappaB-Inducing Kinase (NIK/MAP3K14) Activity (AlphaScreen®)
# NIK/MAP3K14 auto-phosphorylation activity was measured using the AlphaScreen® (αscreen) format (Perkin Elmer). All compounds tested were dissolved in dimethyl sulfoxide (DMSO) and further dilutions were made in assay buffer. Final DMSO concentration was 1% (v/v) in assays. Assay buffer was 50 mM Tris pH 7.5 containing 1 mM EGTA (ethylene glycol tetraacetic acid), 1 mM DTT (dithiothreitol), 0.1 mM Na3VO4, 5 mM MgCl2, 0.01% Tween® 20. Assays were carried out in 384 well Alphaplates (Perkin Elmer). Incubations consisted of compound, 25 microM Adenosine-5′-triphosphate (ATP), and 0.2 nM NIK/MAP3K14. Incubations were initiated by addition of GST-tagged NIK/MAP3K14 enzyme, carried out for 1 h at 25° C. and terminated by addition of stop buffer containing anti-phospho-IKK Ser176/180 antibody. Protein A Acceptor and Glutathione-Donor beads were added before reading using an EnVision® Multilabel Plate Reader (Perkin Elmer). Signal obtained in the wells containing blank samples was subtracted from all other wells and IC50's were determined by fitting a sigmoidal curve to % inhibition of control versus Log10 compound concentration.
# JJN-3 cells = assay: Antiproliferative activity on JJN-3 cells (CellTiter-Glo); assay type: cell-based, human; settings: 72 hr treatment, averaged values
# Procedure: (§1) Determination of Antiproliferative Activity on LP-1, L-363 and JJN-3 Cells
# (§2) All compounds tested were dissolved in DMSO and further dilutions were made in culture medium. Final DMSO concentration was 0.3% (v/v) in cell proliferation assays. Viability was assessed using CellTiter-Glo cell viability assay kit (Promega). The human LP-1, L-363 and JJN-3 cells (DSMZ) were cultured in RPMI 1640 medium supplemented with 2 mM L-glutamine, and 10% fetal calf serum (PAA). Cells were routinely kept as suspension cells at 37° C. in a humidified 5% CO2 atmosphere. Cells were passaged at a seeding density of 0.2×10^6/ml twice a week. Cells were seeded in black tissue culture treated 96-well plates (Perkin Elmer). Densities used for plating ranged from 2,000 to 6,000 cells per well in a total volume of 75 μl medium. After twenty four hours, drugs and/or solvents were added (25 μl) to a final volume of 100 μl. Following 72 hr of treatment plates were removed from the incubator and allowed to equilibrate to room temperature for approx 10 min. 100 μl CellTiter-Glo reagent was added to each well that was then covered (Perkin Elmer Topseal) and shaken on plate shaker for 10 min. Luminescence was measured on a HTS Topcount (Perkin Elmer). Within an experiment, the results for each treatment were the mean of 2 replicate wells. For initial screening purposes, compounds were tested using a 9 point dilution curve (serial 1:3 dilutions). For each experiment, controls (containing no drug) and a blank incubation (containing cells read at the time of compound addition) were run in parallel. The blank value was subtracted from all control and sample values. For each sample, the mean value for cell growth (in relative light units) was expressed as a percentage of the mean value for cell growth of the control.
# L-363 cells = assay: Antiproliferative activity on L-363 cells (CellTiter-Glo); assay type: cell-based, human; settings: 72 hr treatment, averaged values
# Procedure: as §1, §2
# LP-1 cells = assay: Antiproliferative activity on LP-1 cells (CellTiter-Glo); assay type: cell-based, human; settings: 72 hr treatment, averaged values
# Procedure: as §1, §2
compound,measurement,setting,value
CC(C)n1cc(-c2nc(N)ncc2OCCN2CCOCC2)c2cc(C#CC(C)(O)C3CC3)ncc21 (stereo not shown) [Compound 4],IC50,[1],150 nM
same,EC50,"JJN-3 cells; Homo sapiens, JJN-3, 72 h",208 nM
same,EC50,"L-363 cells; Homo sapiens, L-363, 72 h",152 nM
same,EC50,"LP-1 cells; Homo sapiens, LP-1, 72 h",1190 nM
"CC(O)(C#Cc1cc2c(-c3nc(N)ncc3F)cn(C3CN(C4CC4)C3)c2cn1)c1nccs1 (single isomer, unassigned) [Compound 28]",IC50,[1],16 nM
same,EC50,JJN-3 cells,408 nM
same,EC50,L-363 cells,402 nM
same,EC50,"LP-1 cells; Homo sapiens, LP-1, 72 h",4260 nM
"CC(O)(C#Cc1cc2c(-c3nc(N)ncc3F)c[nH]c2c(C2CC2)n1)C1CC1 (single isomer, unassigned) [Compound 13]",IC50,[1],29 nM
same,EC50,"JJN-3 cells; Homo sapiens, JJN-3, 72 h",7 nM
same,EC50,"L-363 cells; Homo sapiens, L-363, 72 h",4 nM
same,EC50,"LP-1 cells; Homo sapiens, LP-1, 72 h",15 nM
COCCCN1CCC(n2cc(-c3nc(N)ncc3F)c3cc(C#CC(C)(O)C4CC4)ncc32)C1 (stereo not shown) [Compound 8],IC50,[1],30 nM
same,EC50,"JJN-3 cells; Homo sapiens, JJN-3, 72 h",119 nM
same,EC50,"L-363 cells; Homo sapiens, L-363, 72 h",80 nM
same,EC50,"LP-1 cells; Homo sapiens, LP-1, 72 h",158 nM
Cc1cc(C(C)(O)C#Cc2cc3c(-c4nc(N)ncc4F)c[nH]c3c(C3CC3)n2)no1 (stereo not shown) [Compound 23],IC50,[1],67 nM
same,EC50,"JJN-3 cells; Homo sapiens, JJN-3, 72 h",442 nM
same,EC50,"L-363 cells; Homo sapiens, L-363, 72 h",368 nM
same,EC50,"LP-1 cells; Homo sapiens, LP-1, 72 h",1280 nM
CC(O)(C#Cc1cc2c(-c3nc(N)ncc3F)c[nH]c2cn1)c1nccs1 (stereo not shown) [Compound 19],IC50,[1],3 nM
same,EC50,"JJN-3 cells; Homo sapiens, JJN-3, 72 h",1010 nM
same,EC50,"L-363 cells; Homo sapiens, L-363, 72 h",1270 nM
same,EC50,"LP-1 cells; Homo sapiens, LP-1, 72 h",7620 nM
COCCN1CCC(n2cc(-c3nc(N)ncc3F)c3cc(C#CC(C)(O)C4CC4)ncc32)C1 (stereo not shown) [Compound 7],IC50,[1],26 nM
same,EC50,"JJN-3 cells; Homo sapiens, JJN-3, 72 h",222 nM
same,EC50,"L-363 cells; Homo sapiens, L-363, 72 h",144 nM
same,EC50,"LP-1 cells; Homo sapiens, LP-1, 72 h",320 nM
CC(O)(C#Cc1cc2c(-c3nc(N)ncc3F)cn(C3CN(C4CC4)C3)c2cn1)c1nccs1 (stereo not shown) [Compound 14],IC50,[1],16 nM
same,EC50,"JJN-3 cells; Homo sapiens, JJN-3, 72 h",631 nM
same,EC50,"L-363 cells; Homo sapiens, L-363, 72 h",1220 nM
same,EC50,"LP-1 cells; Homo sapiens, LP-1, 72 h",3980 nM
CCN1CCC(n2cc(-c3nc(N)ncc3F)c3cc(C#CC(C)(O)C4CC4)nc(C)c32)C1 (stereo not shown) [Compound 10],IC50,[1],58 nM
same,EC50,"JJN-3 cells; Homo sapiens, JJN-3, 72 h",22 nM
same,EC50,"L-363 cells; Homo sapiens, L-363, 72 h",10 nM
same,EC50,"LP-1 cells; Homo sapiens, LP-1, 72 h",20 nM
"CC(O)(C#Cc1cc2c(-c3nc(N)ncc3F)cn(C3CN(C4CC4)C3)c2cn1)c1nccs1 (single isomer, unassigned) [Compound 29]",IC50,[1],735 nM
same,EC50,JJN-3 cells,1930 nM
same,EC50,L-363 cells,3080 nM
same,EC50,LP-1 cells,3530 nM
CC(O)(C#Cc1cc2c(-c3nc(N)ncc3F)cn(C3CN(CCC(F)(F)F)C3)c2cn1)C1CC1 (stereo not shown) [Compound 5],IC50,[1],74 nM
same,EC50,"JJN-3 cells; Homo sapiens, JJN-3, 72 h",227 nM
same,EC50,"L-363 cells; Homo sapiens, L-363, 72 h",175 nM
same,EC50,"LP-1 cells; Homo sapiens, LP-1, 72 h",377 nM
CCCCN1CCC(n2cc(-c3nc(N)ncc3F)c3cc(C#CC(C)(O)C4CC4)ncc32)C1 (stereo not shown) [Compound 11],IC50,[1],21 nM
same,EC50,"JJN-3 cells; Homo sapiens, JJN-3, 72 h",62 nM
same,EC50,"L-363 cells; Homo sapiens, L-363, 72 h",40 nM
same,EC50,"LP-1 cells; Homo sapiens, LP-1, 72 h",52 nM
Cc1nc(C#CC(C)(O)C2CC2)cc2c(-c3nc(N)ncc3F)c[nH]c12 (stereo not shown) [Compound 2],IC50,[1],7 nM
same,EC50,"JJN-3 cells; Homo sapiens, JJN-3, 72 h",7 nM
same,EC50,"L-363 cells; Homo sapiens, L-363, 72 h",5 nM
same,EC50,"LP-1 cells; Homo sapiens, LP-1, 72 h",39 nM
Nc1ncc(F)c(-c2cn(C3CN(C4CC4)C3)c3cnc(C#CC4(O)CCCC4)cc23)n1 [Compound 21],IC50,[1],95 nM
same,EC50,"JJN-3 cells; Homo sapiens, JJN-3, 72 h",464 nM
same,EC50,"L-363 cells; Homo sapiens, L-363, 72 h",408 nM
same,EC50,"LP-1 cells; Homo sapiens, LP-1, 72 h",1000 nM
CCCN1CCC(n2cc(-c3nc(N)ncc3F)c3cc(C#CC(C)(O)C4CC4)ncc32)C1 (stereo not shown) [Compound 6],IC50,[1],29 nM
same,EC50,"JJN-3 cells; Homo sapiens, JJN-3, 72 h",62 nM
same,EC50,"L-363 cells; Homo sapiens, L-363, 72 h",31 nM
same,EC50,"LP-1 cells; Homo sapiens, LP-1, 72 h",69 nM
Nc1ncc(F)c(-c2c[nH]c3c(C4CC4)nc(C#CC4(O)CCCC4)cc23)n1 [Compound 22],IC50,[1],37 nM
same,EC50,"JJN-3 cells; Homo sapiens, JJN-3, 72 h",37 nM
same,EC50,"L-363 cells; Homo sapiens, L-363, 72 h",24 nM
same,EC50,"LP-1 cells; Homo sapiens, LP-1, 72 h",110 nM
CC(O)(C#Cc1cc2c(-c3nc(N)ncc3F)c[nH]c2c(C2CC2)n1)C1CC1 (stereo not shown) [Compound 1],IC50,[1],95 nM
same,EC50,"JJN-3 cells; Homo sapiens, JJN-3, 72 h",8 nM
same,EC50,"L-363 cells; Homo sapiens, L-363, 72 h",4 nM
same,EC50,"LP-1 cells; Homo sapiens, LP-1, 72 h",19 nM
[2H]C([2H])([2H])C(O)(C#Cc1cc2c(-c3nc(N)ncc3F)cn(C3CCCN(CCC)C3)c2cn1)C([2H])([2H])[2H] (stereo not shown) [Compound 12],IC50,[1],56 nM
same,EC50,JJN-3 cells,38 nM
same,EC50,L-363 cells,42 nM
same,EC50,LP-1 cells,76 nM
"CCCCN1CCC(n2cc(-c3nc(N)ncc3F)c3cc(C#CC(C)(O)C4CC4)ncc32)C1 (single isomer, unassigned) [Compound 27]",IC50,[1],26 nM
same,EC50,JJN-3 cells,92 nM
same,EC50,L-363 cells,53 nM
same,EC50,LP-1 cells,100 nM
"CC(O)(C#Cc1cc2c(-c3nc(N)ncc3F)c[nH]c2cn1)c1nccs1 (single isomer, unassigned) [Compound 30]",IC50,[1],20 nM
same,EC50,JJN-3 cells,2080 nM
same,EC50,L-363 cells,4760 nM
same,EC50,LP-1 cells,11600 nM
"CC(O)(C#Cc1cc2c(-c3nc(N)ncc3F)c[nH]c2cn1)c1nccs1 (single isomer, unassigned) [Compound 31]",IC50,[1],2 nM
same,EC50,JJN-3 cells,634 nM
same,EC50,L-363 cells,1210 nM
same,EC50,LP-1 cells,5740 nM
Cc1nc(C(C)(O)C#Cc2cc3c(-c4nc(N)ncc4F)cn(C4CN(C5CC5)C4)c3cn2)no1 (stereo not shown) [Compound 15],IC50,[1],144 nM
same,EC50,"JJN-3 cells; Homo sapiens, JJN-3, 72 h",3220 nM
same,EC50,"L-363 cells; Homo sapiens, L-363, 72 h",2720 nM
same,EC50,"LP-1 cells; Homo sapiens, LP-1, 72 h",14400 nM
"[2H]C([2H])([2H])C(O)(C#Cc1cc2c(-c3nc(N)ncc3F)cn(C3CCCN(CCC)C3)c2cn1)C([2H])([2H])[2H] (single isomer, unassigned) [Compound 24]",IC50,[1],90 nM
same,EC50,JJN-3 cells,135 nM
same,EC50,L-363 cells,118 nM
same,EC50,LP-1 cells,219 nM
CC(O)(C#Cc1cc2c(-c3nc(N)ncc3F)cn(C3CN(C4CC4)C3)c2cn1)c1ncccn1 (stereo not shown) [Compound 17],IC50,[1],189 nM
same,EC50,"JJN-3 cells; Homo sapiens, JJN-3, 72 h",6720 nM
same,EC50,"L-363 cells; Homo sapiens, L-363, 72 h",8260 nM
same,EC50,"LP-1 cells; Homo sapiens, LP-1, 72 h",29000 nM
"Cc1cc(C(C)(O)C#Cc2cc3c(-c4nc(N)ncc4F)c[nH]c3cn2)no1 (single isomer, unassigned) [Compound 33]",IC50,[1],3 nM
same,EC50,JJN-3 cells,593 nM
same,EC50,L-363 cells,472 nM
same,EC50,LP-1 cells,4120 nM
Cc1cc(C(C)(O)C#Cc2cc3c(-c4nc(N)ncc4F)cn(C4CN(C5CC5)C4)c3cn2)no1 (stereo not shown) [Compound 16],IC50,[1],34 nM
same,EC50,"JJN-3 cells; Homo sapiens, JJN-3, 72 h",951 nM
same,EC50,"L-363 cells; Homo sapiens, L-363, 72 h",811 nM
same,EC50,"LP-1 cells; Homo sapiens, LP-1, 72 h",1800 nM
"[2H]C([2H])([2H])C(O)(C#Cc1cc2c(-c3nc(N)ncc3F)cn(C3CCCN(CCC)C3)c2cn1)C([2H])([2H])[2H] (single isomer, unassigned) [Compound 25]",IC50,[1],82 nM
same,EC50,JJN-3 cells,102 nM
same,EC50,L-363 cells,66 nM
same,EC50,LP-1 cells,163 nM
CC(O)C#Cc1cc2c(-c3nc(N)ncc3F)cn(C3CN(C4CC4)C3)c2cn1 (stereo not shown) [Compound 9],IC50,[1],69 nM
same,EC50,"JJN-3 cells; Homo sapiens, JJN-3, 72 h",55 nM
same,EC50,"L-363 cells; Homo sapiens, L-363, 72 h",37 nM
same,EC50,"LP-1 cells; Homo sapiens, LP-1, 72 h",131 nM
